According to ChEMBL document CHEMBL5625190, “Novel fused imidazotriazines acting as promising top. II inhibitors and apoptotic inducers with greater selectivity against head and neck tumors: Design, synthesis, and biological assessments” (Eur J Med Chem, 2023):

Assays:
Caco-2 = assay: Growth inhibition of human Caco-2 cells assessed as reduction in cell viability at 100 ug/ml by SRB colorimetric assay relative to control; type: functional; conditions: read-out: GI
HCT-116 = assay: Growth inhibition of human HCT-116 cells assessed as reduction in cell viability at 100 ug/ml by SRB colorimetric assay relative to control; type: functional; conditions: read-out: GI
HepG2 = assay: Growth inhibition of human HepG2 cells assessed as reduction in cell viability at 100 ug/ml by SRB colorimetric assay relative to control; type: functional; conditions: read-out: GI
A549 = assay: Growth inhibition of human A549 cells assessed as reduction in cell viability at 100 ug/ml by SRB colorimetric assay relative to control; type: functional; conditions: read-out: GI
MDA-MB-231 = assay: Growth inhibition of human MDA-MB-231 cells assessed as reduction in cell viability at 100 ug/ml by SRB colorimetric assay relative to control; type: functional; conditions: read-out: GI
A-375 = assay: Growth inhibition of human A-375 cells assessed as reduction in cell viability at 100 ug/ml by SRB colorimetric assay relative to control; type: functional; conditions: read-out: GI
Huh-7 = assay: Growth inhibition of human Huh-7 cells assessed as reduction in cell viability at 100 ug/ml by SRB colorimetric assay relative to control; type: functional; conditions: read-out: GI
BT-474 = assay: Growth inhibition of human BT-474 cells assessed as reduction in cell viability at 100 ug/ml by SRB colorimetric assay relative to control; type: functional; conditions: read-out: GI
[1] = Growth inhibition of human Oral epithelial cell assessed as reduction in cell viability at 100 ug/ml by SRB colorimetric assay relative to control; type: toxicity, cell-based; conditions: oral epithelial cells, at 100 µg/mL, read-out: GI
PC-3 = assay: Growth inhibition of human PC-3 cells assessed as reduction in cell viability at 100 ug/ml by SRB colorimetric assay relative to control; type: functional; conditions: read-out: GI
HNO 97 cell line = assay: Growth inhibition of human HNO 97 cell line assessed as reduction in cell viability at 100 ug/ml by SRB colorimetric assay relative to control; type: functional; conditions: read-out: GI
MG-63 = assay: Growth inhibition of human MG-63 cells assessed as reduction in cell viability at 100 ug/ml by SRB colorimetric assay relative to control; type: functional; conditions: read-out: GI
MCF7 = assay: Growth inhibition of human MCF7 cells assessed as reduction in cell viability at 100 ug/ml by SRB colorimetric assay relative to control; type: functional; conditions: read-out: GI
NCI-H460 = assay: Growth inhibition of human NCI-H460 cells assessed as reduction in cell viability at 100 ug/ml by SRB colorimetric assay relative to control; type: functional; conditions: read-out: GI
[2] = target: DNA topoisomerase 2-beta (Homo sapiens) (UniProt Q02880); assay: Inhibition of human DNA topoisomerase 2-beta by ELISA method relative to control; conditions: concentration not given here
DNA topoisomerase 2-beta (Homo sapiens), sequence (Q02880 whole entry): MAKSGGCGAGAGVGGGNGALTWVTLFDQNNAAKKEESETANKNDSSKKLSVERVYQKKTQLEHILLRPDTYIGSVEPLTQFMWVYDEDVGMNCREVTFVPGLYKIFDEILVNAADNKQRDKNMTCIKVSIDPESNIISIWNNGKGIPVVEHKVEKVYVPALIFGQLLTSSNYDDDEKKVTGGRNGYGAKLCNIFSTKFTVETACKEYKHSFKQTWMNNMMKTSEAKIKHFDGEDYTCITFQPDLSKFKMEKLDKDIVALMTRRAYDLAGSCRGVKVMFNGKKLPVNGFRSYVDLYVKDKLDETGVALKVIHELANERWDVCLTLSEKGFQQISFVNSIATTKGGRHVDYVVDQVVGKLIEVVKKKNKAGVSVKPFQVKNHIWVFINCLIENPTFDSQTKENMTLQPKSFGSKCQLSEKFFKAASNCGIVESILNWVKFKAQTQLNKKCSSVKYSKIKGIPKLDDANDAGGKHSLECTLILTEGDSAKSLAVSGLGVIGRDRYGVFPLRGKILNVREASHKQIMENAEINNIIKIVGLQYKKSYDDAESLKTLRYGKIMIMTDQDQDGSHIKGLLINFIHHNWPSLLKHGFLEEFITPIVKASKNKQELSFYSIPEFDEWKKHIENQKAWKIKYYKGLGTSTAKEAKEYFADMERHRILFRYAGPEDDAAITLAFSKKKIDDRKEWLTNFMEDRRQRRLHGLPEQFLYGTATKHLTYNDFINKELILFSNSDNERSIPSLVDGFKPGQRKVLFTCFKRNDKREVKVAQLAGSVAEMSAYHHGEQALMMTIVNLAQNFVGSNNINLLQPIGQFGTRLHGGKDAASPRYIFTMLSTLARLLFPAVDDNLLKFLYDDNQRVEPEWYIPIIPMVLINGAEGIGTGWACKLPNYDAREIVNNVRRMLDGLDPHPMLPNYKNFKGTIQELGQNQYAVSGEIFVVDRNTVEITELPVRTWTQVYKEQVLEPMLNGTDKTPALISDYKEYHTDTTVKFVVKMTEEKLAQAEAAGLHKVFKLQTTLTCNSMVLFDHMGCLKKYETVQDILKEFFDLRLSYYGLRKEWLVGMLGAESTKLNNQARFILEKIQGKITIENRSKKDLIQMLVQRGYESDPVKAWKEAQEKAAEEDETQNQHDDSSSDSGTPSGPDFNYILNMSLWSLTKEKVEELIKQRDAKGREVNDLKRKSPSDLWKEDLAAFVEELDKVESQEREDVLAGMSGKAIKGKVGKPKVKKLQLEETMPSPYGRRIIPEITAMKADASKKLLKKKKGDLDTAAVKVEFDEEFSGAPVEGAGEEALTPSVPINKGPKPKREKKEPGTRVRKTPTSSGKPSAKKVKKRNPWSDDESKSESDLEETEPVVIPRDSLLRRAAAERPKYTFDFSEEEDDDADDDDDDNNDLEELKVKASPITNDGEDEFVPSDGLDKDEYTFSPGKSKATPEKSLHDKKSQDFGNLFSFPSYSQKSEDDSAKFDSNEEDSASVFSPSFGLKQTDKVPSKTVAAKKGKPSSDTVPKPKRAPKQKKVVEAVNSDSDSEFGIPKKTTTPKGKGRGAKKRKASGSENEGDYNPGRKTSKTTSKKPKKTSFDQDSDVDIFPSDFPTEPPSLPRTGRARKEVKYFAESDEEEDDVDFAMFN

SMILES	inhibition of growth at 100 µg/mL (Caco-2) [%]	inhibition of growth at 100 µg/mL (HCT-116) [%]	inhibition of growth at 100 µg/mL (HepG2) [%]	inhibition of growth at 100 µg/mL (A549) [%]	inhibition of growth at 100 µg/mL (MDA-MB-231) [%]	inhibition of growth at 100 µg/mL (A-375) [%]	inhibition of growth at 100 µg/mL (Huh-7) [%]	inhibition of growth at 100 µg/mL (BT-474) [%]	inhibition at 100 ug/ml [1] [%]	inhibition of growth at 100 µg/mL (PC-3) [%]	inhibition of growth at 100 µg/mL (HNO 97 cell line) [%]	inhibition of growth at 100 µg/mL (MG-63) [%]	inhibition of growth at 100 µg/mL (MCF7) [%]	inhibition of growth at 100 µg/mL (NCI-H460) [%]	inhibition [2] [%]
NC1=NC(c2ccccc2)n2c(nc3ccccc32)N1 (configuration not stated)	61.7	61.1	66.6	59.1	68.2	63.4	68.1	51.4	24.4	72.7	78.1	56	60.2	65.3	
CC(C)c1ccc(C2N=C(N)Nc3nc4ccccc4n32)cc1 (configuration not stated)	59.2	55.6	63.7	49	78.6	58.1	54.7	61.7	7.69	71.7	75.7	58	55.4	65.6	77.5
CN(C)c1ccc(C2NC(N)=Nc3nc4ccccc4n32)cc1 (configuration not stated)	64	64.1	78.8	67.7	61	68.5	70	60.1	14.2	57.5	80.8	58	63.2	70.9	
COc1cc(C2NC(N)=Nc3nc4ccccc4n32)ccc1OCc1ccccc1 (configuration not stated)	40.1	39	41.3	30.5	51.7	45.1	26.9	1	21	44.6	63.2	13.1	48.9	30.4	
COc1cc(C2NC(N)=Nc3nc4ccccc4n32)cc(OC)c1OC (configuration not stated)	69	63.6	73.9	67.5	79.4	61.8	70.1	69.9	32.7	60	82.2	59.4	72	69.6	
NC1=Nc2nc3ccccc3n2C(c2cccc(Cl)c2Cl)N1 (configuration not stated)	61.1	59.6	72.5	67.8	75.1	68.7	67	60.4	38.4	71.5	78.6	63.2	63.6	73.1	
NC1=NC(c2cccnc2)n2c(nc3ccccc32)N1 (configuration not stated)	53.7	65.2	67.8	55.6	30.5	56	57.2	0.93	52.7	52.2	64.8	42.4	60.7	58.1	
Cc1ccc(C2NC(N)=Nc3nc4ccccc4n32)o1 (configuration not stated)	56.2	60.9	61.5	56.2	27.4	58.5	50	13.2	59.7	55.2	57.5	50.6	51.6	61.6	
NC1=Nc2nc3ccccc3n2C(c2c[nH]c3ccccc23)N1 (configuration not stated)	61.7	64.3	69.2	58.8	34.3	69.2	65.3	34.4	51.3	54.2	75.3	56.2	56.5	63.5	
NC1=Nc2nc3ccccc3n2C(c2ccc([N+](=O)[O-])cc2)N1 (configuration not stated)	65.9	61.3	74.3	65.6	74.6	58.6	56.9	60.2	40.3	61.2	70.4	53.4	61.2	74.7	
NC1=Nc2nc3ccccc3n2C(c2cccc3ccccc23)N1 (configuration not stated)	59.9	55.7	59	54.4	76.2	52.8	58.7	61.4	45.9	59	61.1	58	53.7	61.1	
NC1=Nc2nc3ccccc3n2C(c2ccc3ccccc3c2)N1 (configuration not stated)	61	50.2	45	56.7	66.6	44.1	54.6	55.3	55.7	54.8	57.3	58.6	48.8	65	
COc1ccc(OC)c(C2N=C(N)Nc3nc4ccccc4n32)c1 (configuration not stated)	52.5	49.3	63.6	54.9	64.9	52.1	54.8	46.3	10.2	46	76.6	46.8	54.4	63.2	
NC1=Nc2nc3ccccc3n2C(c2cccs2)N1 (configuration not stated)	62.9	64.4	64.9	61.4	38.7	56.4	65	5.76	59.6	48	71.8	49.9	56.2	58.8	
